Results taken from EP4509511A1, “SUBSTITUTED SPIRO-ISOXAZOLINYL LACTAMS, SALTS THEREOF AND THEIR USE AS HERBICIDALLY ACTIVE SUBSTANCES” (Bayer Aktiengesellschaft, priority 2023, dated 2025).

Legend:
ECHCG [1] = assay: Herbicidal pre-emergence action - Part I; format: in vivo, Echinochloa crus-galli; conditions: visual grading after ca. 3 weeks vs untreated controls
Source text: (§1) Seeds of mono- and dicotyledonous weed plants were sown in plastic pots (double sowings with one species of mono- and one species of dicotyledonous weed plants per pot), in sandy loam, and covered with soil. The compounds according to the invention, formulated in the form of wettable powders (WP) or as emulsifiable concentrates (EC), were applied to the surface of the covering soil as aqueous suspension or emulsion, with the addition of 0.5% of an additive, at an application rate of 600 1 of water per hectare (converted). Following treatment, the pots were placed in a greenhouse and kept under optimum growth conditions for the test plants. The visual grading of the damage to the test plants was carried out after ca. 3 weeks in comparison to untreated controls (herbicidaleffectinpercent(%):100%effect=plantshavediedoff,0%effect=ascontrolplants). [formula]
(§2) Tables A1 to A12, below, show the effects of selected compounds of the general formula (I) according to table 1 on various harmful plants and an application rate corresponding to 1280 g/ha or below obtained by the experimental procedure mentioned above. Table A1: pre-emergence activity at 1280g/ha against ABUTH in %

LOLRI = assay: Herbicidal pre-emergence action - Part I; format: in vivo, Lolium rigidum; conditions: 1280 g/ha, visual grading after ca. 3 weeks vs untreated controls
Source text: as §1, §2

MATIN [2] = assay: Herbicidal pre-emergence action - Part I; format: in vivo, Matricaria inodora; conditions: 1280 g/ha, visual grading after ca. 3 weeks vs untreated controls
Source text: as §1, §2

SETVI [3] = assay: Herbicidal pre-emergence action - Part I; format: in vivo, Setaria viridis; conditions: visual grading after ca. 3 weeks vs untreated controls
Source text: as §1, §2

STEME [4] = assay: Herbicidal pre-emergence action - Part I; format: in vivo, Stellaria media; conditions: visual grading after ca. 3 weeks vs untreated controls
Source text: as §1, §2

POAAN [5] = assay: Herbicidal pre-emergence action - Part I; format: in vivo, Poa annua; conditions: visual grading after ca. 3 weeks vs untreated controls
Source text: as §1, §2

AMARE [6] = assay: Herbicidal pre-emergence action - Part I; format: in vivo, Amaranthus retroflexus; conditions: visual grading after ca. 3 weeks vs untreated controls
Source text: as §1, §2

KCHSC [7] = assay: Herbicidal pre-emergence action - Part I; format: in vivo, Kochia scoparia; conditions: Table A10a, 1280 g/ha, visual grading after ca. 3 weeks vs untreated controls
Source text: as §1, §2

DIGSA = assay: Herbicidal pre-emergence action - Part I; format: in vivo, Digitaria sanguinalis; conditions: visual grading after ca. 3 weeks vs untreated controls
Source text: as §1, §2

ECHCG [8] = assay: Herbicidal post-emergence action - Part I; format: in vivo, Echinochloa crus-galli; conditions: one-leaf stage, rated visually after about 3 weeks vs untreated controls
Experimental: (§3) Seeds of mono- and dicotyledonous weed plants were placed in plastic pots in sandy loam soil (doubly sown with in each case one species of mono- or dicotyledonous weed plants per pot), covered with soil and cultivated in a greenhouse under controlled growth conditions. 2 to 3 weeks after sowing, the test plants were treated at the one-leaf stage. The compounds of the invention, formulated in the form of wettable powders (WP) or as emulsion concentrates (EC), were applied onto the green parts of the plants as aqueous suspension or emulsion with addition of 0.5% additive at a water application rate of 600 liters per hectare (converted). After the test plants had been kept in the greenhouse under optimum growth conditions for about 3 weeks, the activity of the preparations was rated visually in comparison to untreated controls. For example, 100% activity = the plants have died, 0% activity = like control plants. Tables B1 to B12, below, show the effects of selected compounds of the general formula (I) according to table 1 on various harmful plants and an application rate corresponding to 1280 g/ha or below obtained by the experimental procedure mentioned above. Table B1a: post-emergence activity at 1280g/ha against ABUTH in %

SETVI [9] = assay: Herbicidal post-emergence action - Part I; format: in vivo, Setaria viridis; conditions: 1280 g/ha, one-leaf stage, rated visually after about 3 weeks vs untreated controls
Experimental: as §3

POAAN [10] = assay: Herbicidal post-emergence action - Part I; format: in vivo, Poa annua; conditions: 1280 g/ha, one-leaf stage, rated visually after about 3 weeks vs untreated controls
Experimental: as §3

AMARE [11] = assay: Herbicidal post-emergence action - Part I; format: in vivo, Amaranthus retroflexus; conditions: 1280 g/ha, one-leaf stage, rated visually after about 3 weeks vs untreated controls
Experimental: as §3

KCHSC [12] = assay: Herbicidal post-emergence action - Part I; format: in vivo, Kochia scoparia; conditions: 1280 g/ha, one-leaf stage, rated visually after about 3 weeks vs untreated controls
Experimental: as §3

VERPE [13] = assay: Herbicidal post-emergence action - Part I; format: in vivo, Veronica persica; conditions: 1280 g/ha, one-leaf stage, rated visually after about 3 weeks vs untreated controls
Experimental: as §3

STEME [14] = assay: Herbicidal post-emergence action - Part I; format: in vivo, Stellaria media; conditions: one-leaf stage, rated visually after about 3 weeks vs untreated controls
Experimental: as §3

ABUTH = assay: Herbicidal post-emergence action - Part II; format: in vivo, Abutilon theophrasti
Source text: (§4) Seeds of mono- and dicotyledonous weed plants and crop plants were sown, in plastic or organic planting pots, in sandy loam, covered with soil and grown in a greenhouse under controlled growth conditions. 2 to 3 weeks after sowing, the test plants were sprayed in the single-leaf stage. The compounds according to the invention, formulated in form of wettable powders (WP) or as emulsifiable concentrates (EC), were sprayed onto the green plant parts as aqueous suspension or emulsion, with the addition of 0.5% of an additive, at an application rate of 600 1 of water/ha (converted). The test plants were placed in the greenhouse for ca. 3 weeks under optimum growth conditions, and then the effect of the preparations was assessed visually in comparison with untreated controls (herbicidal effect in percent (%): 100% effect = plants have died off, 0% effect = as control plants). Tables E1 to E10 below show the effects of selected compounds of the general formula (I) according to table 1 on various harmful plants and an application rate corresponding to 320 g/ha or below obtained by the experimental procedure mentioned above. Table E1a: post-emergence activity at 5g/ha against ABUTH in %

AMARE [15] = assay: Herbicidal post-emergence action - Part II; format: in vivo, Amaranthus retroflexus
Source text: as §4

MATIN [16] = assay: Herbicidal post-emergence action - Part II; format: in vivo, Matricaria inodora; conditions: 20 g/ha; Table E4b
Source text: as §4

PHBPU = assay: Herbicidal post-emergence action - Part II; format: in vivo, Pharbitis purpurea
Source text: as §4

SETVI [17] = assay: Herbicidal post-emergence action - Part II; format: in vivo, Setaria viridis; conditions: 20 g/ha; Table E7b
Source text: as §4

VERPE [18] = assay: Herbicidal post-emergence action - Part II; format: in vivo, Veronica persica; conditions: 20 g/ha; Table E8b
Source text: as §4

VIOTR = assay: Herbicidal post-emergence action - Part II; format: in vivo, Viola tricolor; conditions: 20 g/ha; Table E9b
Source text: as §4

ZEAMX = assay: Post-emergence effects on crop plants; format: in vivo, Zea mays; conditions: 5 g/ha; Table F1a; crop plant
Source text: as §4, with “F1” for “E1”, “F5” for “E10”, “crop” for “harmful”, “[…]:” for “E1a:”, “ZEAMX” for “ABUTH”

TRZAS = assay: Post-emergence effects on crop plants; format: in vivo, Triticum aestivum; conditions: 5 g/ha; Table F2a; crop plant
Source text: as §4, with “F1” for “E1”, “F5” for “E10”, “crop” for “harmful”, “[…]:” for “E1a:”, “ZEAMX” for “ABUTH”

SMILES	pre-emergence activity at 1280g/ha against ECHCG in % (ECHCG [1]) [%]	pre-emergence activity at 1280g/ha against LOLRI in % (LOLRI) [%]	pre-emergence activity at 1280g/ha against MATIN in % (MATIN [2]) [%]	pre-emergence activity at 1280g/ha and against SETVI in % (SETVI [3]) [%]	pre-emergence activity at 320g/ha against STEME in % (STEME [4]) [%]	pre-emergence activity at 1280g/ha against STEME in % (STEME [4]) [%]	pre-emergence activity at 320g/ha and against POAAN in % (POAAN [5]) [%]	pre-emergence activity at 1280g/ha and against POAAN in % (POAAN [5]) [%]	pre-emergence activity at 1280g/ha against AMARE in % (AMARE [6]) [%]	pre-emergence activity at 1280g/ha against KCHSC in % (KCHSC [7]) [%]	pre-emergence activity at 1280g/ha against DIGSA in % (DIGSA) [%]	post-emergence activity at 1280g/ha against ECHCG in % (ECHCG [8]) [%]	post-emergence activity at 1280g/ha against POAAN in % (POAAN [10]) [%]	post-emergence activity at 1280g/ha against AMARE in % (AMARE [11]) [%]	post-emergence activity at 1280g/ha against KCHSC in % (KCHSC [12]) [%]	post-emergence activity at 1280g/ha against VERPE in % (VERPE [13]) [%]	also measured
Cc1ccsc1C1=NOC2(CCCN(Cc3cccc(F)c3F)C2=O)C1 (racemic) [Compound I-3, 7-(2,3-Difluorobenzyl)-3-(3-methyl-2-thienyl)-1-oxa-2,7-diazaspiro[4.5]-dec-2-en-6-one]	100	100	90	100	90	90	100	100	90	90	100	90	90	90	90	90	pre-emergence activity at 320g/ha against ECHCG in % (ECHCG [1]; 320 g/ha): 100%; pre-emergence activity at 320g/ha and against SETVI in % (SETVI [3]; 320 g/ha): 100%; pre-emergence activity at 320g/ha against DIGSA in % (DIGSA; 320 g/ha): 90%; post-emergence activity at 320g/ha against ECHCG in % (ECHCG [8]; 320 g/ha): 90%; post-emergence activity at 1280g/ha against SETVI in % (SETVI [9]): 90%
Cc1ccccc1CN1CCCC2(CC(c3sccc3C)=NO2)C1=O (racemic) [Compound I-4, 7-(2-Methylbenzyl)-3-(3-methyl-2-thienyl)-1-oxa-2,7-diazaspiro[4.5]dec-2-en-6-one]				90			100	100				90	90	90		90	
Cc1ccsc1C1=NOC2(CCN(Cc3ccccc3F)C2=O)C1 (racemic) [Compound I-17, 7-(2-Fluorobenzyl)-3-(3-methyl-2-thienyl)-1-oxa-2,7-diazaspiro[4.4]non-2-en-6-one]	90	100	90	100	90	100		100	90						90		pre-emergence activity at 80g/ha against STEME in % (STEME [4]; 80 g/ha): 90%
O=C1N(Cc2c(F)cccc2F)CCC12CC(c1ccccc1F)=NO2 (racemic) [Compound I-27, 7-(2,6-Difluorobenzyl)-3-(2-fluorophenyl)-1-oxa-2,7-diazaspiro[4.4]non-2-en-6-one]	100		90	90	90	90	100	100	90	90	90			90			pre-emergence activity at 320g/ha against AMARE in % (AMARE [6]; 320 g/ha): 90%; post-emergence activity at 320g/ha against STEME in % (STEME [14]; 320 g/ha): 90%; post-emergence activity at 1280g/ha against STEME in % (STEME [14]; 1280 g/ha): 90%
Cn1c(C(F)(F)F)cc(=O)n(-c2cc(C3=NOC4(CCCNC4=O)C3)c(Cl)cc2F)c1=O (racemic) [Compound I-67]																	post-emergence activity against ABUTH (ABUTH; 5 g/ha, Table E1a): 80%; post-emergence activity against ABUTH (ABUTH; 20 g/ha, Table E1b): 100%; post-emergence activity against AMARE (AMARE [15]; 5 g/ha, Table E2a): 100%; post-emergence activity against AMARE (AMARE [15]; 20 g/ha, Table E2b): 100%; post-emergence activity against MATIN (MATIN [16]): 100%; post-emergence activity against PHBPU (PHBPU; 5 g/ha, Table E5a): 100%; post-emergence activity against PHBPU (PHBPU; 20 g/ha, Table E5b): 100%; post-emergence activity against SETVI (SETVI [17]): 80%; post-emergence activity against VERPE (VERPE [18]): 80%; post-emergence activity against VIOTR (VIOTR): 100%; post-emergence activity against ZEAMX (ZEAMX): 20%; post-emergence activity against TRZAS (TRZAS): 20%
